Measurements reported in patent US20040220131A1, “Method for treatment of cancerous angiogenic disorders” (The University of British Columbia, priority 2003, published 2004).

Assays:
HUVECS [1] = assay: HUVEC cell viability (mts, absorbance 490 and 595 nm) after antisense with or without drug; format: cell-based, human
Experimental: HUVECS were grown for 2 days in wells after seeding at 1200 per well. Antisense oligonucleotide of Seq. ID No. 5 (4 μg/ml with lipofectin) was added in serum free medium and incubated with the cells for 4 hours. Then 100 μl of serum was added and incubation was continued overnight. The next day, 150 μl of drug solution in serum medium was added. After two days, 20 μl of mts solution was added and left for approximately 3 hours. Cell viability was determined as the difference between absorption at 490 and 595 nm.

HUVECS [2] = conditions: by the induction of apoptosis; cited from earlier work
[3] = Table 2, Drug alone (100 nM camptothecin)
[4] = Table 3, Drug alone (200 nM doxorubicin)
[5] = Table 1, Drug alone (100 nM paclitaxel)
[6] = Table 1 (paclitaxel series), AS 50 nM, no drug
[7] = Table 1 (paclitaxel series), AS 100 nM, no drug
[8] = Table 1 (paclitaxel series), AS 200 nM, no drug
[9] = Table 1, Drug (100 nM paclitaxel) + AS 50 nM
[10] = Table 1, Drug (100 nM paclitaxel) + AS 100 nM
[11] = Table 1, Drug (100 nM paclitaxel) + AS 200 nM
[12] = Table 2 (camptothecin series), AS 50 nM, no drug
[13] = Table 2 (camptothecin series), AS 100 nM, no drug
[14] = Table 2 (camptothecin series), AS 200 nM, no drug
[15] = Table 2, Drug (100 nM camptothecin) + AS 50 nM
[16] = Table 2, Drug (100 nM camptothecin) + AS 100 nM
[17] = Table 2, Drug (100 nM camptothecin) + AS 200 nM
[18] = Table 3 (doxorubicin series), AS 50 nM, no drug
[19] = Table 3 (doxorubicin series), AS 100 nM, no drug
[20] = Table 3 (doxorubicin series), AS 200 nM, no drug
[21] = Table 3, Drug (200 nM doxorubicin) + AS 50 nM
[22] = Table 3, Drug (200 nM doxorubicin) + AS 100 nM
[23] = Table 3, Drug (200 nM doxorubicin) + AS 200 nM

CC[C@@]1(O)C(=O)OCc2c1cc1n(c2=O)Cc2cc3ccccc3nc2-1 [camptothecin, reference compound]
absorbance at 490 nm (HUVECS [1]; [3]): 0.55 | absorbance at 595 nm (HUVECS [1]; [3]): 0.07 | concentration range that inhibits Huvecs (HUVECS [2]): low nanomolar range

COc1cccc2c1C(=O)c1c(O)c3c(c(O)c1C2=O)C[C@@](O)(C(=O)CO)C[C@@H]3O[C@H]1C[C@H](N)[C@H](O)[C@H](C)O1 [doxorubicin, reference compound]
absorbance at 490 nm (HUVECS [1]; [4]): 0.74 | absorbance at 595 nm (HUVECS [1]; [4]): 0.08 | concentration range that inhibits Huvecs (HUVECS [2]): low nanomolar range

CC(=O)O[C@H]1C(=O)[C@@]2(C)[C@H]([C@H](OC(=O)c3ccccc3)[C@]3(O)C[C@H](OC(=O)[C@H](O)[C@@H](NC(=O)c4ccccc4)c4ccccc4)C(C)=C1C3(C)C)[C@]1(OC(C)=O)CO[C@@H]1C[C@@H]2O [paclitaxel, reference compound]
absorbance at 490 nm (HUVECS [1]; [5]): 0.53 | absorbance at 595 nm (HUVECS [1]; [5]): 0.12 | concentration range that inhibits Huvecs (HUVECS [2]): low nanomolar range

AS: Antisense oligonucleotide of Seq. ID No. 5, reduces the effective amount of clusterin (antisense CAGCAGCAGAGTCTTCATCAT; listed as DNA, chemistry not given here)
cell viability, response to antisense in the presence of drug versus absence (HUVECS [1]; FIG. 1, in the presence of 100 nM paclitaxel): greater | cell viability, response to antisense concentration (HUVECS [1]; FIG. 1, paclitaxel series): dose dependent response | cell viability, response to antisense concentration (HUVECS [1]; FIG. 2, camptothecin series): dose dependent response | cell viability, response to antisense in the presence of drug versus absence (HUVECS [1]; FIG. 2, in the presence of 100 nM camptothecin): greater | cell viability, response to antisense concentration (HUVECS [1]; FIG. 3, doxorubicin series): dose dependent response | cell viability, response to antisense in the presence of drug versus absence (HUVECS [1]; FIG. 3, in the presence of 200 nM doxorubicin): greater | absorbance at 490 nm (HUVECS [1]; [6]): 0.66 | absorbance at 595 nm (HUVECS [1]; [6]): 0.04 | absorbance at 490 nm (HUVECS [1]; [7]): 0.40 | absorbance at 595 nm (HUVECS [1]; [7]): 0.09 | absorbance at 490 nm (HUVECS [1]; [8]): 0.28 | absorbance at 595 nm (HUVECS [1]; [8]): 0.07 | absorbance at 490 nm (HUVECS [1]; [9]): 0.50 | absorbance at 595 nm (HUVECS [1]; [9]): 0.09 | absorbance at 490 nm (HUVECS [1]; [10]): 0.24 | absorbance at 595 nm (HUVECS [1]; [10]): 0.04 | absorbance at 490 nm (HUVECS [1]; [11]): 0.17 | absorbance at 595 nm (HUVECS [1]; [11]): 0.05 | absorbance at 490 nm (HUVECS [1]; [12]): 0.66 | absorbance at 595 nm (HUVECS [1]; [12]): 0.10 | absorbance at 490 nm (HUVECS [1]; [13]): 0.39 | absorbance at 595 nm (HUVECS [1]; [13]): 0.06 | absorbance at 490 nm (HUVECS [1]; [14]): 0.21 | absorbance at 595 nm (HUVECS [1]; [14]): 0.04 | absorbance at 490 nm (HUVECS [1]; [15]): 0.53 | absorbance at 595 nm (HUVECS [1]; [15]): 0.07 | absorbance at 490 nm (HUVECS [1]; [16]): 0.31 | absorbance at 595 nm (HUVECS [1]; [16]): 0.08 | absorbance at 490 nm (HUVECS [1]; [17]): 0.15 | absorbance at 595 nm (HUVECS [1]; [17]): 0.05 | absorbance at 490 nm (HUVECS [1]; [18]): 0.66 | absorbance at 595 nm (HUVECS [1]; [18]): 0.07 | absorbance at 490 nm (HUVECS [1]; [19]): 0.35 | absorbance at 595 nm (HUVECS [1]; [19]): 0.05 | absorbance at 490 nm (HUVECS [1]; [20]): 0.22 | absorbance at 595 nm (HUVECS [1]; [20]): 0.04 | absorbance at 490 nm (HUVECS [1]; [21]): 0.66 | absorbance at 595 nm (HUVECS [1]; [21]): 0.06 | absorbance at 490 nm (HUVECS [1]; [22]): 0.32 | absorbance at 595 nm (HUVECS [1]; [22]): 0.04 | absorbance at 490 nm (HUVECS [1]; [23]): 0.18 | absorbance at 595 nm (HUVECS [1]; [23]): 0.02
